Measured values published in publication PMC5363373, “Zirconium tetraazamacrocycle complexes display extraordinary stability and provide a new strategy for zirconium-89-based radiopharmaceutical development” (Chemical Science, 2016).

Legend:
[1] = In vitro EDTA challenge study; type: physicochemical
Protocol: In vitro EDTA challenge study. In vitro EDTA challenge study was carried out by adding 10 µL of each 89Zr-labeled complex (70 μCi, 2.59 MBq) to 500 µL of EDTA (10 mM, 50 mM and 100 mM: pH 5 and pH 7) with a 1:100, 1:500, and 1:1000 ratio of ligand/EDTA. The solutions (n=4) were incubated at 37 °C for 7 days in a thermomixer. Samples were analyzed at 30 min, 1 h, 3 h, 6 h, 1 d, 3 d, 5 d and 7 d post administration to EDTA by radio-TLC using Varian ITLC-SA strips and 0.1 M EDTA (pH 5) as the mobile phase and gamma counting using an energy window of 500-1500 keV and standard protocols .

[2] = In vitro serum stability (radio-ITLC); type: in vitro ADME; details: 37 C, after 7 days
Protocol: In vitro serum stability. In vitro serum stability was carried out by adding 10 µL of each 89Zr-labeled complex (70 μCi, 2.59 MBq) to 500 µL of human serum. The solutions (n=4) were incubated at 37 °C for 7 days and were analyzed daily for 1 week by radio -TLC using Varian ITLC-SA strips and 0.1 M EDTA (pH 5) as the mobile phase and gamma counting using an energy window of 500-1500 keV and standard protocols . Serum samples were also analyzed after 7 days by size exclusion chromatography (SEC) using a Superdex 200 10/300 GLTM column (GE Healthcare Life Sciences, Piscataway, NJ) and phosphate buffered saline (PBS) as eluent with a flow rate of 0.5 mL/min.
Figure S30. Radio-ITLC of 89Zr-DOTA solution in human serum at 37 °C after 0 h (a) and 7 days (b). […]

[3] = In vitro metal competition study; type: physicochemical; details: PBS pH 7.4, 37 C
Protocol: In vitro Metal Competition study. To a solution of metal cations [iron (III) chloride, cobalt (II) chloride, zinc (II) chloride, copper (II) chloride, magnesium (II) chloride, gallium (III) nitrate, gadolinium (III) chloride] (1 mM, 200 µL), was added 89Zr-labeled complex (0.1 mM, 10 µL, 80 μCi, 2.96 MBq) in PBS, pH 7.4. The resulting solutions (n = 3) were incubated at 37 °C for 7 days in a thermomixer. Dissociation of 89Zr from 89Zr-complexes was monitored by radio-TLC at 2 h, 1 d, 4 d and 7 d time point. All studies were performed in triplicate.

[4] = Biodistribution studies; type: in vivo, female NIH Swiss mice; details: mice, over the 72 h experiment
Protocol: Biodistribution Studies. Biodistribution studies were conducted using a modified literature procedure. 7 Briefly, female NIH Swiss mice (6-8 wk old, n=6) were injected with each 89Zr-labeled complex (0.55 MBq (15 μCi)/mouse) via the tail vein, and sacrificed at 2, 4, 24, 48, 72 h post-injection. Organs and tissues of interest were excised, weighted, and counted on a Perkin Elmer 2480 Wizard® gamma counter (Waltham, MA). The percent injected dose per gram (%ID/g) and percent injected dose per organ (%ID/organ) were calculated by comparison to a weighed, counted standard for each group (Tables S9 – S12).
Statistical Methods. All of the data are presented as mean±SD or mean (95% Confidence Interval). For statistical classification a student’s t test (two-tailed, unpaired) was performed using GraphPad Prism (San Diego, CA). Any p<0.05 was considered significant.

% Intact of 89Zr-complexes ([1]; EDTA 100-fold, pH 5.0, 37 C, 1 h): 97.7 ± 0.2%
% Intact of 89Zr-complexes ([1]; EDTA 100-fold, pH 5.0, 37 C, 1 d): 84.4 ± 0.9%
% Intact of 89Zr-complexes ([1]; EDTA 100-fold, pH 5.0, 37 C, 3 d): 67.6 ± 0.9%
% Intact of 89Zr-complexes ([1]; EDTA 100-fold, pH 5.0, 37 C, 5 d): 49.6 ± 0.6%
% Intact of 89Zr-complexes ([1]; EDTA 100-fold, pH 5.0, 37 C, 7 d): 42.3 ± 1.2%
% Intact of 89Zr-complexes ([1]; EDTA 100-fold, pH 7.0, 37 C, 1 h): 99.0 ± 0.2%
% Intact of 89Zr-complexes ([1]; EDTA 100-fold, pH 7.0, 37 C, 1 d): 90.9 ± 0.8%
% Intact of 89Zr-complexes ([1]; EDTA 100-fold, pH 7.0, 37 C, 3 d): 86.1 ± 1.1%
% Intact of 89Zr-complexes ([1]; EDTA 100-fold, pH 7.0, 37 C, 5 d): 75.7 ± 0.8%
% Intact of 89Zr-complexes ([1]; EDTA 100-fold, pH 7.0, 37 C, 7 d): 72.1 ± 2.0%
% Intact of 89Zr-complexes ([1]; EDTA 500-fold, pH 5.0, 37 C, 1 h): 97.5 ± 0.6%
% Intact of 89Zr-complexes ([1]; EDTA 500-fold, pH 5.0, 37 C, 1 d): 80.0 ± 1.2%
% Intact of 89Zr-complexes ([1]; EDTA 500-fold, pH 5.0, 37 C, 3 d): 47.0 ± 0.4%
% Intact of 89Zr-complexes ([1]; EDTA 500-fold, pH 5.0, 37 C, 5 d): 22.8 ± 1.8%
% Intact of 89Zr-complexes ([1]; EDTA 500-fold, pH 5.0, 37 C, 7 d): 12.2 ± 1.5%
% Intact of 89Zr-complexes ([1]; EDTA 500-fold, pH 7.0, 37 C, 1 h): 98.5 ± 0.2%
% Intact of 89Zr-complexes ([1]; EDTA 500-fold, pH 7.0, 37 C, 1 d): 90.8 ± 0.9%
% Intact of 89Zr-complexes ([1]; EDTA 500-fold, pH 7.0, 37 C, 3 d): 77.5 ± 1.4%
% Intact of 89Zr-complexes ([1]; EDTA 500-fold, pH 7.0, 37 C, 5 d): 66.6 ± 0.5%
% Intact of 89Zr-complexes ([1]; EDTA 500-fold, pH 7.0, 37 C, 7 d): 58.1 ± 1.4%
% Intact of 89Zr-complexes ([1]; EDTA 1000-fold, pH 5.0, 37 C, 1 h): 96.5 ± 0.2%
% Intact of 89Zr-complexes ([1]; EDTA 1000-fold, pH 5.0, 37 C, 1 d): 77.0 ± 1.3%
% Intact of 89Zr-complexes ([1]; EDTA 1000-fold, pH 5.0, 37 C, 3 d): 38.3 ± 1.5%
% Intact of 89Zr-complexes ([1]; EDTA 1000-fold, pH 5.0, 37 C, 5 d): 13.4 ± 1.6%
% Intact of 89Zr-complexes ([1]; EDTA 1000-fold, pH 5.0, 37 C, 7 d): 5.7 ± 1.0%
% Intact of 89Zr-complexes ([1]; EDTA 1000-fold, pH 7.0, 37 C, 1 h): 98.3 ± 0.1%
% Intact of 89Zr-complexes ([1]; EDTA 1000-fold, pH 7.0, 37 C, 1 d): 88.6 ± 0.4%
% Intact of 89Zr-complexes ([1]; EDTA 1000-fold, pH 7.0, 37 C, 3 d): 69.9 ± 1.8%
% Intact of 89Zr-complexes ([1]; EDTA 1000-fold, pH 7.0, 37 C, 5 d): 58.2 ± 1.3%
% Intact of 89Zr-complexes ([1]; EDTA 1000-fold, pH 7.0, 37 C, 7 d): 47.4 ± 0.9%
Radio-ITLC peak of complex in human serum [2]: 99.2%
% Intact of 89Zr-complexes ([3]; Co2+, 2 h): 92.6 ± 0.5%
% Intact of 89Zr-complexes ([3]; Co2+, 1 d): 88.6 ± 0.3%
% Intact of 89Zr-complexes ([3]; Co2+, 4 d): 85.8 ± 0.4%
% Intact of 89Zr-complexes ([3]; Co2+, 7 d): 80.9 ± 1.0%
% Intact of 89Zr-complexes ([3]; Cu2+, 2 h): 91.9 ± 0.1%
% Intact of 89Zr-complexes ([3]; Cu2+, 1 d): 86.7 ± 0.7%
% Intact of 89Zr-complexes ([3]; Cu2+, 4 d): 80.5 ± 0.8%
% Intact of 89Zr-complexes ([3]; Cu2+, 7 d): 74.1 ± 1.2%
% Intact of 89Zr-complexes ([3]; Fe3+, 2 h): 92.4 ± 0.5%
% Intact of 89Zr-complexes ([3]; Fe3+, 1 d): 89.8 ± 0.2%
% Intact of 89Zr-complexes ([3]; Fe3+, 4 d): 87.2 ± 0.8%
% Intact of 89Zr-complexes ([3]; Fe3+, 7 d): 85.8 ± 0.8%
% Intact of 89Zr-complexes ([3]; Ga3+, 2 h): 92.9 ± 0.7%
% Intact of 89Zr-complexes ([3]; Ga3+, 1 d): 87.9 ± 0.7%
% Intact of 89Zr-complexes ([3]; Ga3+, 4 d): 86.6 ± 2.3%
% Intact of 89Zr-complexes ([3]; Ga3+, 7 d): 80.3 ± 0.4%
% Intact of 89Zr-complexes ([3]; Gd3+, 2 h): 93.9 ± 0.3%
% Intact of 89Zr-complexes ([3]; Gd3+, 1 d): 90.6 ± 0.3%
% Intact of 89Zr-complexes ([3]; Gd3+, 4 d): 88.8 ± 0.6%
% Intact of 89Zr-complexes ([3]; Gd3+, 7 d): 86.3 ± 0.1%
% Intact of 89Zr-complexes ([3]; Mg2+, 2 h): 93.6 ± 1.0%
% Intact of 89Zr-complexes ([3]; Mg2+, 1 d): 90.5 ± 0.5%
% Intact of 89Zr-complexes ([3]; Mg2+, 4 d): 87.4 ± 0.9%
% Intact of 89Zr-complexes ([3]; Mg2+, 7 d): 93.1 ± 0.8%
% Intact of 89Zr-complexes ([3]; Zn2+, 2 h): 94.1 ± 0.5%
% Intact of 89Zr-complexes ([3]; Zn2+, 1 d): 89.4 ± 1.9%
% Intact of 89Zr-complexes ([3]; Zn2+, 4 d): 71.9 ± 1.7%
% Intact of 89Zr-complexes ([3]; Zn2+, 7 d): 57.0 ± 1.8%
SMILES: NC(=O)CN1CCN(CC(N)=O)CCN(CC(N)=O)CCN(CC(N)=O)CC1.[89Zr+4] [89Zr-DOTAM]
Radioactivity retention in liver and spleen tissues [4]: retained elevated levels of radioactivity
